Measured values taken from the NIST ThermoML archive (doi:10.1021/je500669y).

Assay: xn = mol fraction of the nth substance listed
Conditions: Gas, isochoric method

F/C=C/C(F)(F)F [trans-1,3,3,3-tetrafluoropropene] + N#N
Conditions	specific volume [m3/kg]
263.05 K, 383.1 kPa, x2 = 0.75	0.114
263.16 K, 622.6 kPa, x2 = 0.746	0.069
273.12 K, 398.4 kPa, x2 = 0.75	0.114
273.13 K, 648.5 kPa, x2 = 0.746	0.069
273.19 K, 464.3 kPa, x2 = 0.5	0.066
283.07 K, 291.8 kPa, x2 = 0.495	0.11
283.1 K, 413.5 kPa, x2 = 0.75	0.114
283.1 K, 673.7 kPa, x2 = 0.746	0.069
283.12 K, 485.7 kPa, x2 = 0.5	0.066
293.08 K, 302.8 kPa, x2 = 0.495	0.11
293.09 K, 699 kPa, x2 = 0.746	0.069
293.11 K, 506.5 kPa, x2 = 0.5	0.066
293.13 K, 428.7 kPa, x2 = 0.75	0.114
303.05 K, 313.9 kPa, x2 = 0.495	0.11
303.16 K, 525.9 kPa, x2 = 0.5	0.066
303.17 K, 443.8 kPa, x2 = 0.75	0.114
303.18 K, 196.3 kPa, x2 = 0.254	0.136
303.19 K, 381.3 kPa, x2 = 0.25	0.069
303.35 K, 724.8 kPa, x2 = 0.746	0.069
313.14 K, 203.2 kPa, x2 = 0.254	0.136
313.17 K, 396.1 kPa, x2 = 0.25	0.069
313.17 K, 545.2 kPa, x2 = 0.5	0.066
313.18 K, 324.5 kPa, x2 = 0.495	0.11
313.18 K, 458.8 kPa, x2 = 0.75	0.114
313.2 K, 749.1 kPa, x2 = 0.746	0.069
323.13 K, 209.9 kPa, x2 = 0.254	0.136
323.15 K, 410.2 kPa, x2 = 0.25	0.069
323.16 K, 473.2 kPa, x2 = 0.75	0.114
323.17 K, 335.3 kPa, x2 = 0.495	0.11
323.17 K, 564 kPa, x2 = 0.5	0.066
323.17 K, 773.9 kPa, x2 = 0.746	0.069
333.16 K, 423.9 kPa, x2 = 0.25	0.069
333.17 K, 582.8 kPa, x2 = 0.5	0.066
333.17 K, 799.4 kPa, x2 = 0.746	0.069
333.18 K, 346.1 kPa, x2 = 0.495	0.11
333.19 K, 488.7 kPa, x2 = 0.75	0.114
333.34 K, 216.7 kPa, x2 = 0.254	0.136
343.11 K, 601.4 kPa, x2 = 0.5	0.066
343.12 K, 223.3 kPa, x2 = 0.254	0.136
343.12 K, 356.8 kPa, x2 = 0.495	0.11
343.13 K, 823.9 kPa, x2 = 0.746	0.069
343.14 K, 438.2 kPa, x2 = 0.25	0.069
343.14 K, 503.4 kPa, x2 = 0.75	0.114
353.05 K, 451.9 kPa, x2 = 0.25	0.069
353.08 K, 229.5 kPa, x2 = 0.254	0.136
353.1 K, 619.5 kPa, x2 = 0.5	0.066
353.11 K, 367.5 kPa, x2 = 0.495	0.111
353.13 K, 518.1 kPa, x2 = 0.75	0.114
353.13 K, 848.5 kPa, x2 = 0.746	0.069
363.06 K, 236.3 kPa, x2 = 0.254	0.136
363.1 K, 378.2 kPa, x2 = 0.495	0.111
363.1 K, 465.8 kPa, x2 = 0.25	0.069
363.1 K, 872.9 kPa, x2 = 0.746	0.069
363.12 K, 638.7 kPa, x2 = 0.5	0.066
363.25 K, 533.3 kPa, x2 = 0.75	0.114
373 K, 242.6 kPa, x2 = 0.254	0.136
373.07 K, 547.3 kPa, x2 = 0.75	0.114
373.09 K, 389.2 kPa, x2 = 0.495	0.111
373.09 K, 657 kPa, x2 = 0.5	0.066
373.1 K, 479.5 kPa, x2 = 0.25	0.069
373.16 K, 897.7 kPa, x2 = 0.746	0.069
383.05 K, 675.5 kPa, x2 = 0.5	0.066
383.06 K, 494.4 kPa, x2 = 0.25	0.069
383.08 K, 922.8 kPa, x2 = 0.746	0.069
383.09 K, 399.9 kPa, x2 = 0.495	0.111
383.09 K, 562.6 kPa, x2 = 0.75	0.114
383.26 K, 249.6 kPa, x2 = 0.254	0.136
393.05 K, 508.1 kPa, x2 = 0.25	0.069
393.06 K, 577.5 kPa, x2 = 0.75	0.114
393.06 K, 694 kPa, x2 = 0.5	0.066
393.08 K, 410.6 kPa, x2 = 0.495	0.111
393.13 K, 947.3 kPa, x2 = 0.746	0.069
393.14 K, 256.3 kPa, x2 = 0.254	0.136
402.99 K, 421.1 kPa, x2 = 0.495	0.111
403.04 K, 521.2 kPa, x2 = 0.25	0.069
403.04 K, 592.5 kPa, x2 = 0.75	0.114
403.05 K, 712.5 kPa, x2 = 0.5	0.066
403.1 K, 971.7 kPa, x2 = 0.746	0.069
403.14 K, 262.9 kPa, x2 = 0.254	0.137
413 K, 432.1 kPa, x2 = 0.495	0.111
413.01 K, 535.2 kPa, x2 = 0.25	0.069
413.04 K, 995.8 kPa, x2 = 0.746	0.069
413.06 K, 607.4 kPa, x2 = 0.75	0.114
413.1 K, 731 kPa, x2 = 0.5	0.066
413.13 K, 269.4 kPa, x2 = 0.254	0.137
